In publication PMC12858405, “Ideal efficacy photoswitching for chromocontrol of TRPC4/5 channel functions in live tissues” (Nature Chemical Biology, 2026):

Target: T1, TRPC5-V579I-SYFP2 (Homo sapiens, UniProt Q9UL62, V579I)
T1 construct: expressed in transfected cells; host or cells: HEK 293 (ATCC CRL 1573), transiently transfected (jetPRIME)
T1 sequence (Q9UL62 1-973 V579I): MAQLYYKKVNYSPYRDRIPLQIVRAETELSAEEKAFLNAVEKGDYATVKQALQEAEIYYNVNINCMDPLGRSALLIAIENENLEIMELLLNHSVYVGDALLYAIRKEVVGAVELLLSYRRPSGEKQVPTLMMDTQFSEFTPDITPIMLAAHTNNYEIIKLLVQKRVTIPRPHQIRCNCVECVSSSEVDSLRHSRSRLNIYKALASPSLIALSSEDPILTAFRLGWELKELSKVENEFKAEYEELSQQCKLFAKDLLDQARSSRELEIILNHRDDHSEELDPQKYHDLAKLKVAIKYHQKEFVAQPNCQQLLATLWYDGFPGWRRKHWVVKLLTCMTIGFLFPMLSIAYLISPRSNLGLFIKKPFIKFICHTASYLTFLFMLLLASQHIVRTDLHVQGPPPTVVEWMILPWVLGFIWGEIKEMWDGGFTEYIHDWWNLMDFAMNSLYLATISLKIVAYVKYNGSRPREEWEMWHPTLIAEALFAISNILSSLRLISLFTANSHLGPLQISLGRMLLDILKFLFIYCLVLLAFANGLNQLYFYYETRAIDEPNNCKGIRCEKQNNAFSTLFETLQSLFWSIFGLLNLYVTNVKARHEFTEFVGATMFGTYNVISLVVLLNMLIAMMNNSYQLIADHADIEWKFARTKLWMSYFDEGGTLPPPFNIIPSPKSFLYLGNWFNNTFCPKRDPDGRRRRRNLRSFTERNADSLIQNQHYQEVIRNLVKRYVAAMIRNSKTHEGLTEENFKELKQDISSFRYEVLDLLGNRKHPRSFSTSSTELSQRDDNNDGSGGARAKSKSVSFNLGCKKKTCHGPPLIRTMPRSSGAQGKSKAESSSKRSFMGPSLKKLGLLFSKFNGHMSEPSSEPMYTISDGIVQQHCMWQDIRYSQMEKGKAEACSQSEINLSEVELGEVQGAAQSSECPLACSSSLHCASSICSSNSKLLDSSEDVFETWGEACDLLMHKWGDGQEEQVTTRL
Experiment: Fura-2 [Ca2+]i recordings, HEK 293 transiently expressing TRPC5-V579I-SYFP2
Format: cell-based
Conditions: 10-1000 nM; compound plate illuminated at 380 nm; EA 100 nM as maximum
Description: Müller, Niemeyer, et al., Schaefer & Thorn-Seshold 2025: Ideal Efficacy Photoswitching of TRPC4/5 in Tissue […]
1.4.3 Note on TRPC4 / TRPC5 Sequence Alignment
The key contact residues of interest in the ligand binding site are highly conserved between TRPC4 and TRPC5. The relevant sequences in the site are: […]
1.4.4 Differences and selectivity between TRPC5 and TRPC4?
AM237 activates TRPC5 but inhibits EA mediated activation of TRPC4; Pico145 inhibits both TRPC4 and TRPC5. Thus, somewhat naively, it could be argued that it is the para substituent here which affects both the efficacy mode and the selectivity for TRPC4 and/or TRPC5.
Intriguingly, Z-AzPico activates TRPC4 and TRPC5 with low nanomolar potency whereas Z-AzHC only activates TRPC5 but not TRPC4. Therefore, the meta substituent is now responsible for the selectivity in this case. The cryo-EM structures of Pico145 and HC-070 in complex with TRPC5 indicated the same binding site but the southern phenyl ring bearing the OCF3/Cl group is flipped and pointing in opposite directions.
Z isomers, i.e. Z-buried vs. E-projected. Additionally, both E-AzPico and E-AzHC inhibit EA […]
Intracellular calcium ([Ca2+]i) was measured using the ratiometric Ca2+ dye Fura-2. […]

Structure (SMILES) | Effect on [Ca2+]i, TRPC5V579I
Cn1c(=O)n(CCCO)c(=O)c2c1nc(Oc1ccc(Cl)c(OC(F)(F)F)c1)n2Cc1ccc(Cl)cc1 [AM237, reference compound] | partial agonists
Cn1c(=O)n(CCCO)c(=O)c2c1nc(Oc1ccc(/N=N\c3ccccc3)c(Cl)c1)n2Cc1ccc(Cl)cc1 [Z*-AzHC] | partial agonists
